Like-named read-outs stand apart in the source and are kept apart here. Non-standard residues stand in square brackets, D forms with d. Residues, ends and D or L forms follow the SMILES beside them. *: point of attachment. Acetyl(1-naphthyl) = O=C(Cc1cccc2ccccc12)*; dHpg = N[C@@H](C(=O)O)c1ccc(O)cc1; Hpg = N[C@H](C(=O)O)c1ccc(O)cc1; Pra = C#CC[C@H](N)C(=O)O; X1 = O=C(Cc1ccc(O)cc1)*; ClAc = O=C(CCl)*
Target: N-terminal methyltransferase1 (NTMT1) (Homo sapiens (Human), UniProt Q9BV86)
Assay: NTMT1 inhibition IC50, SAH hydrolase-coupled fluorescence assay
Assay type: biochemical
Procedure: The inhibitors ranging in concentration from (2 μL of 0.14 μM-1 mM) and following a three-fold dilution were incubated with 0.2 μM NTMT1 with a reaction mixture which was added in the following order: H2O, 10× Tris-HCl Buffer (2 μL of 250 mM Tris pH 7.4, 100 mM NaCl, and 500 mM KCl), SAH hydrolase (1 μL of 100 μM), SAM (0.2 μL of 10 mM), NTMT1 (1 μL of 4 μM) and ThioGlo1 (0.2 μL of 1.5 mM DMSO solution). After 10 mins of incubation at 37° C., the reaction was initiated with 1 μM of GPKRIA. Fluorescence intensity was monitored using a BMG ClarioStar microplate reader (Ex=380 nm, Em=510 nm) at 37° C. for 15 min. The rates were fit to the log[inhibitor] vs response model using least squares nonlinear regression through GraphPad Prism 7 software. All experiments were performed in triplicate.

[1] = 0.2 μM NTMT1, 1 μM GPKRIA peptide substrate, 37° C., ThioGlo1 fluorescence

N-terminal methyltransferase1 (NTMT1), sequence (Q9BV86 1-222): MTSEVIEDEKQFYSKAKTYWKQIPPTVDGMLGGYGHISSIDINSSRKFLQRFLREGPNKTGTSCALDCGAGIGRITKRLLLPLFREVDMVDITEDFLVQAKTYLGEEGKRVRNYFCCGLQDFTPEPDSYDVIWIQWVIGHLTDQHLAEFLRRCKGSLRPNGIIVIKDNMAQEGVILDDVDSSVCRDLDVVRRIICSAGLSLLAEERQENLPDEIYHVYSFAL

SMILES | IC50 | IC50 [1]
N=C(N)NCCC[C@H](NC(=O)[C@H](CCCNC(=N)N)NC(=O)[C@H](CCCCN)NC(=O)[C@@H]1CCCN1C(=O)Cc1cccc2ccccc12)C(N)=O [Compound 25, (S)—N—((S)-6-amino-1-(((S)-1-(((S)-1-amino-5-guanidino-1-oxopentan-2-yl)amino)-5-guanidino-1-oxopentan-2-yl)amino)-1-oxohexan-2-yl)-1-(2-(naphthalen-1-yl)acetyl)pyrrolidine-2-carboxamide] ({Acetyl(1-naphthyl)}-PKRR-NH2) | 40 nM | 
C#CC[C@H](NC(=O)[C@H](CCCNC(=N)N)NC(=O)[C@H](CCCCN)NC(=O)[C@@H]1CCCN1C(=O)Cc1cccc2ccccc12)C(N)=O [Compound 26, (S)—N—((S)-6-amino-1-(((S)-1-(((S)-1-amino-1-oxopent-4-yn-2-yl)amino)-5-guanidino-1-oxopentan-2-yl)amino)-1-oxohexan-2-yl)-1-(2-(naphthalen-1-yl)acetyl)pyrrolidine-2-carboxamide] ({Acetyl(1-naphthyl)}-PKR[Pra]-NH2) | 90 nM | 
NCCCC[C@H](NC(=O)c1cn(CC(=O)Nc2ccccc2)nn1)C(N)=O [Compound 11, (S)—N-(1,6-diamino-1-oxohexan-2-yl)-1-(2-oxo-2-(phenylamino)ethyl)-1H-1,2,3-triazole-4-carboxamide] |  | > 100000 nM
N=C(N)NCCC[C@H](NC(=O)[C@H](CCCCN)NC(=O)[C@@H]1CCCN1C(=O)[C@@H]1CCCN1C(=O)CCl)C(=O)O [Compound 12, (2-chloroacetyl)-L-prolyl-L-prolyl-L-lysyl-L-arginine] (ClAc-PPKR-OH) |  | 16000 ± 5900 nM
N=C(N)NCCC[C@H](NC(=O)[C@H](CCCCN)NC(=O)[C@@H]1CCCN1C(=O)[C@@H](NC(=O)Cc1ccc(O)cc1)c1ccc(O)cc1)C(N)=O [Compound 22, (S)—N—((S)-6-amino-1-(((S)-1-amino-5-guanidino-1-oxopentan-2-yl)amino)-1-oxohexan-2-yl)-1-((S)-2-(4-hydroxyphenyl)-2-(2-(4-hydroxyphenyl)acetamido)acetyl)pyrrolidine-2-carboxamide] (X1-[Hpg]PKR-NH2) | > 100000 nM | 
N=C(N)NCCC[C@H](NC(=O)[C@H](CCCCN)NC(=O)[C@@H]1CCCN1C(=O)Cc1cccc2[nH]ccc12)C(N)=O [Compound 4, (S)-1-(2-(1H-indol-4-yl)acetyl)-N—((S)-6-amino-1-(((S)-1-amino-5-guanidino-1-oxopentan-2-yl)amino)-1-oxohexan-2-yl)pyrrolidine-2-carboxamide] |  | 160 ± 70 nM
N=C(N)NCCC[C@H](NC(=O)[C@H](CCCCN)NC(=O)[C@@H]1CCCN1C(=O)Cc1cccc2ccccc12)C(=O)N[C@@H](Cc1ccc(O)cc1)C(N)=O [Compound 44, (S)—N—((S)-6-amino-1-(((S)-1-(((S)-1-amino-3-(4-hydroxyphenyl)-1-oxopropan-2-yl)amino)-5-guanidino-1-oxopentan-2-yl)amino)-1-oxohexan-2-yl)-1-(2-(naphthalen-1-yl)acetyl)pyrrolidine-2-carboxamide] ({Acetyl(1-naphthyl)}-PKRY-NH2) | 79 ± 13 nM | 
N=C(N)NCCC[C@H](NC(=O)[C@H](CCCCN)NC(=O)[C@@H]1CCCN1C(=O)Cc1ccc(CO)cc1)C(N)=O [Compound 18, (S)—N—((S)-6-amino-1-(((S)-1-amino-5-guanidino-1-oxopentan-2-yl)amino)-1-oxohexan-2-yl)-1-(2-(4-(hydroxymethyl)phenyl)acetyl)pyrrolidine-2-carboxamide] |  | 1500 nM
N=C(N)NCCC[C@H](NC(=O)[C@H](CCCNC(=N)N)NC(=O)[C@H](CCCNC(=N)N)NC(=O)[C@H](CCCNC(=N)N)NC(=O)[C@H](CCCNC(=N)N)NC(=O)[C@H](CCCNC(=N)N)NC(=O)[C@H](CCCCN)NC(=O)[C@@H]1CCCN1C(=O)Cc1cccc2ccccc12)C(N)=O [Compound 34, (S)—N-((6S,9S,12S,15S,18S,21S,24S)-1,28-diamino-6-carbamoyl-9,12,15,18,21-pentakis(3-guanidinopropyl)-1-imino-8,11,14,17,20,23-hexaoxo-2,7,10,13,16,19,22-heptaazaoctacosan-24-yl)-1-(2-(naphthalen-1-yl)acetyl)pyrrolidine-2-carboxamide] ({Acetyl(1-naphthyl)}-PKRRRRRR-NH2) |  | 68 nM
NCCCC[C@H](NC(=O)CN(C(=O)Cc1cccc2ccccc12)C1CCCC1)C(N)=O [Compound 10, (S)-6-amino-2-(2-(N-cyclopentyl-2-(naphthalen-1-yl)acetamido)acetamido)hexanamide] |  | > 100000 nM
N=C(N)NCCC[C@H](NC(=O)[C@H](CCCNC(=N)N)NC(=O)[C@H](CCCNC(=N)N)NC(=O)[C@H](CCC(N)=O)NC(=O)[C@H](CCCNC(=N)N)NC(=O)[C@H](CCCNC(=N)N)NC(=O)[C@H](CCCCN)NC(=O)[C@H](CCCCN)NC(=O)[C@H](CCCNC(=N)N)NC(=O)CNC(=O)[C@H](CCCNC(=N)N)NC(=O)[C@H](CCCCN)NC(=O)[C@@H]1CCCN1C(=O)Cc1ccc(O)cc1)C(=O)O [Compound 32, (2-(4-hydroxyphenyl)acetyl)-L-prolyl-L-lysyl-L-arginylglycyl-L-arginyl-L-lysyl-L-lysyl-L-arginyl-L-arginyl-L-glutaminyl-L-arginyl-L-arginyl-L-arginine] |  | 230 ± 30 nM
CC[C@H](C)[C@H](NC(=O)[C@H](CCCNC(=N)N)NC(=O)[C@H](CCCCN)NC(=O)[C@@H]1CCCN1C(=O)Cc1cccc2ccccc12)C(N)=O [Compound 24, (S)—N—((S)-6-amino-1-(((S)-1-(((2S,3S)-1-amino-3-methyl-1-oxopentan-2-yl)amino)-5-guanidino-1-oxopentan-2-yl)amino)-1-oxohexan-2-yl)-1-(2-(naphthalen-1-yl)acetyl)pyrrolidine-2-carboxamide] ({Acetyl(1-naphthyl)}-PKRI-NH2) | 60 nM | 
N=C(N)NCCC[C@H](NC(=O)[C@H](CCCCN)NC(=O)[C@@H]1CCCN1C(=O)[C@@H](NCCc1ccc(O)cc1)c1ccc(O)cc1)C(N)=O [Compound 47, (S)—N—((S)-6-amino-1-(((S)-1-amino-5-guanidino-1-oxopentan-2-yl)amino)-1-oxohexan-2-yl)-1-((S)-2-((4-hydroxyphenethyl)amino)-2-(4-hydroxyphenyl)acetyl)pyrrolidine-2-carboxamide] | > 100000 nM | 
NCCCC[C@H](NC(=O)[C@@H]1CCCN1C(=O)Cc1cccc2ccccc12)C(=O)N[C@@H](CCC(=O)O)C(N)=O [Compound 39, (S)-5-amino-4-((S)-6-amino-2-((S)-1-(2-(naphthalen-1-yl)acetyl)pyrrolidine-2-carboxamido)hexanamido)-5-oxopentanoic acid] |  | 5760 nM
N=C(N)NCCC[C@H](NC(=O)[C@H](CCCCN)NC(=O)[C@@H]1CCCN1C(=O)/C=C/c1ccc(O)cc1)C(N)=O [Compound 17, (S)—N—((S)-6-amino-1-(((S)-1-amino-5-guanidino-1-oxopentan-2-yl)amino)-1-oxohexan-2-yl)-1-((E)-3-(4-hydroxyphenyl)acryloyl)pyrrolidine-2-carboxamide] | 2500 nM | 
N=C(N)NCCC[C@H](NC(=O)[C@H](CCCCN)NC(=O)[C@@H]1CCCN1C(=O)[C@H](NCCc1ccc(O)cc1)c1ccc(O)cc1)C(N)=O [Compound 23, (S)—N—((S)-6-amino-1-(((S)-1-amino-5-guanidino-1-oxopentan-2-yl)amino)-1-oxohexan-2-yl)-1-((R)-2-((4-hydroxyphenethyl)amino)-2-(4-hydroxyphenyl)acetyl)pyrrolidine-2-carboxamide] | > 100000 nM | 
N=C(N)NCCC[C@H](NC(=O)[C@H](CCCCN)NC(=O)[C@@H]1CCCN1C(=O)Cc1cccc2ccccc12)C(N)=O [Compound 1, (S)—N—((S)-6-amino-1-(((S)-1-amino-5-guanidino-1-oxopentan-2-yl)amino)-1-oxohexan-2-yl)-1-(2-(naphthalen-1-yl)acetyl)pyrrolidine-2-carboxamide] | 400 ± 30 nM | 
N=C(N)NCCC[C@H](NC(=O)[C@H](CCCCN)NC(=O)[C@@H]1CCCN1C(=O)[C@H](NC(=O)Cc1ccc(O)cc1)c1ccc(O)cc1)C(N)=O [Compound 21, (S)—N—((S)-6-amino-1-(((S)-1-amino-5-guanidino-1-oxopentan-2-yl)amino)-1-oxohexan-2-yl)-1-((R)-2-(4-hydroxyphenyl)-2-(2-(4-hydroxyphenyl)acetamido)acetyl)pyrrolidine-2-carboxamide] (X1-[dHpg]PKR-NH2) | > 100000 nM | 
N=C(N)NCCC[C@H](NC(=O)[C@H](CCCCN)NC(=O)[C@@H]1CCCN1C(=O)Cc1cccc2ccccc12)C(=O)N[C@@H](Cc1c[nH]c2ccccc12)C(N)=O [Compound 43] ({Acetyl(1-naphthyl)}-PKRW-NH2) | 95 ± 26 nM | 

Reference: US12479887B2, “Inhibitors for protein n-terminal methyltransferase and uses thereof” (Purdue Research Foundation, priority 2018, dated 2025)
